Reference: publication PMC11012124, “Synthesis of Novel Triazine-Based Chalcones and 8,9-dihydro-7H-pyrimido[4,5-b][1,4]diazepines as Potential Leads in the Search of Anticancer, Antibacterial and Antifungal Agents” (International Journal of Molecular Sciences, 2024)
Converted amounts (≈) assume the structure as drawn.

How the values were obtained:
CAKI-1 = experiment: cells; conditions: Homo sapiens, CAKI-1, 48 h; for CC50: read-out: LC50
T-47D = experiment: cells; conditions: Homo sapiens, T47D, 48 h; for CC50: read-out: LC50
KM12 = experiment: cells; conditions: Homo sapiens, KM12, 48 h; for CC50: read-out: LC50
COLO 205 = experiment: cells; conditions: Homo sapiens, COLO 205, 48 h; for CC50: read-out: LC50
SF-295 = experiment: cells; conditions: Homo sapiens, SF-295, 48 h; for CC50: read-out: LC50
HCT-15 = experiment: cells; conditions: Homo sapiens, HCT-15, 48 h; for CC50: read-out: LC50
SF-268 = experiment: cells; conditions: Homo sapiens, SF-268, 48 h; for CC50: read-out: LC50
NCI/ADR-RES = experiment: cells; conditions: Homo sapiens, 48 h; for CC50: read-out: LC50
SR = experiment: cells; conditions: Homo sapiens, 48 h; for CC50: read-out: LC50
SNB-19 = experiment: cells; conditions: Homo sapiens, SNB-19, 48 h; for CC50: read-out: LC50
HT29 = experiment: cells; conditions: Homo sapiens, HT-29, 48 h; for CC50: read-out: LC50
NCI-H322M = experiment: cells; conditions: Homo sapiens, 48 h; for CC50: read-out: LC50
NCI-H522 = experiment: cells; conditions: Homo sapiens, NCI-H522, 48 h; for CC50: read-out: LC50
[1] = test system: N. gonorrhoeae ATCC 49226; experiment: MIC on GC agar plates; format: cell-based, Neisseria gonorrhoeae; conditions: Neisseria gonorrhoeae, ATCC49226, read-out: MIC
Method: An initial screening for bacterial inhibition was performed by the agar diffusion method. […] DMSO and TSB were included as negative controls. Gentamicin and trimethoprim sulfamethoxazole were included as a positive control for growth inhibition. Derivatives showing growth inhibition were tested at least twice before being selected for the microdilution test. For N. gonorrhoeae, the agar diffusion method was also used for screening with some modifications. […] Penicillin and tetracycline were used as controls. […] Briefly, GC agar supplemented with 1% isovitalex was prepared with increasing concentrations of the new compounds and inoculated with 10 µL of a bacterial suspension (1 × 10^4 CFU). The lowest concentration of the compound that inhibited bacterial growth was determined as the MIC. Bacterial growth was examined and verified using the oxidase test. The experiments were performed in duplicate in at least two independent assays.

U251 = experiment: cells; conditions: Homo sapiens, U-251, 48 h; for GI50: U251, 48 h; for CC50: read-out: LC50
HOP-62 = experiment: cells; conditions: Homo sapiens, HOP-62, 48 h; for CC50: read-out: LC50
UACC-62 = experiment: cells; conditions: Homo sapiens, UACC-62, 48 h; for CC50: read-out: LC50
786-0 = experiment: cells; conditions: Homo sapiens, 786-0, 48 h; for CC50: read-out: LC50
OVCAR-4 = experiment: cells; conditions: Homo sapiens, OVCAR-4, 48 h; for CC50: read-out: LC50
SK-MEL-5 = experiment: cells; conditions: Homo sapiens, SK-MEL-5, 48 h; for CC50: read-out: LC50
SK-MEL-2 = experiment: cells; conditions: Homo sapiens, SK-MEL-2, 48 h; for CC50: read-out: LC50
UO-31 = experiment: cells; conditions: Homo sapiens, UO-31, 48 h; for CC50: read-out: LC50
DU-145 = experiment: cells; conditions: Homo sapiens, DU-145, 48 h; for CC50: read-out: LC50
MDA-MB-468 = experiment: cells; conditions: Homo sapiens, MDA-MB-468, 48 h; for CC50: read-out: LC50
OVCAR-3 = experiment: cells; conditions: Homo sapiens, OVCAR-3, 48 h; for CC50: read-out: LC50

## Cc1ccc(C2CC(c3ccc(Nc4nc(NCCO)nc(Nc5ccc(Cl)cc5)n4)cc3)=Nc3c(N)nc(N)nc3N2)cc1 (centres unmarked) [33b]
CAKI-1
  GI50: 1.64 µM
  CC50: 5.73 µM
T-47D
  GI50: 1.67 µM
  CC50: 8.01 µM
KM12
  GI50: 1.97 µM
  CC50: 7.54 µM
COLO 205
  GI50: 1.67 µM
  CC50: 6.09 µM
SF-295
  GI50: 1.63 µM
  CC50: 5.63 µM
HCT-15
  GI50: 1.48 µM
  CC50: 5.87 µM
SF-268
  GI50: 1.81 µM
  CC50: 7.35 µM
NCI/ADR-RES
  GI50: 1.73 µM
  CC50: 6.97 µM
SR
  GI50: 1.68 µM
  CC50: > 100 µM
SNB-19
  GI50: 1.57 µM
  CC50: 5.75 µM
HT29
  GI50: 1.78 µM
  CC50: 7.14 µM
NCI-H322M
  GI50: 1.59 µM
  CC50: 5.42 µM
NCI-H522
  GI50: 1.72 µM
  CC50: 7.03 µM
[1]
  MIC: 0.5 µg/mL (≈ 0.802 µM)
U251
  GI50: 1.6 µM
  CC50: 5.65 µM
HOP-62
  GI50: 1.68 µM
  CC50: 6.08 µM
UACC-62
  GI50: 1.82 µM
  CC50: 6.33 µM
786-0
  GI50: 1.64 µM
  CC50: 5.7 µM
OVCAR-4
  GI50: 1.85 µM
  CC50: 7.14 µM
SK-MEL-5
  GI50: 1.56 µM
  CC50: 5.43 µM
SK-MEL-2
  GI50: 1.81 µM
  CC50: 6.4 µM
UO-31
  GI50: 1.64 µM
  CC50: 5.51 µM
DU-145
  GI50: 1.76 µM
  CC50: 5.77 µM
MDA-MB-468
  GI50: 1.65 µM
  CC50: 6.09 µM

## COc1cc(/C=C/C(=O)c2ccc(C)cc2)ccc1Oc1nc(Nc2ccc(F)cc2)nc(N(C)C)n1 [21b]
CAKI-1
  GI50: 6.43 µM
  CC50: > 100 µM
T-47D
  GI50: 3.57 µM
  CC50: > 100 µM
KM12
  GI50: 19.3 µM
  CC50: > 100 µM
COLO 205
  GI50: 41.7 µM
  CC50: > 100 µM
SF-295
  GI50: 8.61 µM
  CC50: > 100 µM
HCT-15
  GI50: 4.73 µM
  CC50: 43.4 µM
SF-268
  GI50: 13.9 µM
  CC50: > 100 µM
NCI/ADR-RES
  GI50: 5.97 µM
  CC50: > 100 µM
SR
  GI50: 3.25 µM
  CC50: > 100 µM
SNB-19
  GI50: 11.1 µM
  CC50: 67.3 µM
HT29
  GI50: 8.15 µM
  CC50: > 100 µM
NCI-H322M
  GI50: 51.9 µM
  CC50: > 100 µM
OVCAR-3
  GI50: 13 µM
  CC50: > 100 µM
NCI-H522
  GI50: 9.76 µM
  CC50: > 100 µM
U251
  GI50: 3.32 µM
  CC50: > 100 µM
HOP-62
  GI50: 32.2 µM
  CC50: > 100 µM
UACC-62
  GI50: 10.1 µM
  CC50: > 100 µM
786-0
  GI50: 13.3 µM
  CC50: > 100 µM
OVCAR-4
  GI50: 7.94 µM
  CC50: > 100 µM
SK-MEL-5
  GI50: 5.14 µM
  CC50: 78.5 µM
SK-MEL-2
  GI50: 8.83 µM
  CC50: > 100 µM
UO-31
  GI50: 4.2 µM
  CC50: > 100 µM
DU-145
  GI50: 25.8 µM
  CC50: > 100 µM
MDA-MB-468
  GI50: 4.64 µM
  CC50: > 100 µM

## Nc1nc(N)c2c(n1)NC(c1ccc(C(F)(F)F)cc1)CC(c1ccc(Nc3nc(NCCO)nc(Nc4ccc(Cl)cc4)n3)cc1)=N2 (centres unmarked) [33g]
CAKI-1
  GI50: 1.45 µM
  CC50: 5.61 µM
T-47D
  GI50: 1.55 µM
  CC50: 8.75 µM
KM12
  GI50: 1.37 µM
  CC50: 6.05 µM
COLO 205
  GI50: 1.33 µM
  CC50: 5.25 µM
SF-295
  GI50: 1.79 µM
  CC50: 6.14 µM
HCT-15
  GI50: 1.15 µM
  CC50: 5.83 µM
SF-268
  GI50: 1.66 µM
  CC50: 7.27 µM
NCI/ADR-RES
  GI50: 1.95 µM
SR
  GI50: 1.46 µM
  CC50: > 100 µM
SNB-19
  GI50: 1.51 µM
  CC50: 5.76 µM
HT29
  GI50: 1.36 µM
  CC50: 6.54 µM
NCI-H322M
  GI50: 1.66 µM
  CC50: 5.63 µM
OVCAR-3
  GI50: 1.32 µM
  CC50: 6.57 µM
NCI-H522
  GI50: 1.34 µM
  CC50: 5.54 µM
U251
  GI50: 1.24 µM
  CC50: 5.16 µM
HOP-62
  GI50: 1.63 µM
  CC50: 6.14 µM
UACC-62
  GI50: 1.68 µM
786-0
  GI50: 1.39 µM
  CC50: 6.09 µM
OVCAR-4
  GI50: 2.23 µM
  CC50: > 100 µM
SK-MEL-5
  GI50: 1.55 µM
  CC50: 5.37 µM
SK-MEL-2
  GI50: 1.67 µM
  CC50: 5.64 µM
UO-31
  GI50: 1.43 µM
  CC50: 5.3 µM
DU-145
  GI50: 1.51 µM
  CC50: 5.33 µM
MDA-MB-468
  GI50: 1.58 µM
  CC50: 6.53 µM

## COc1cc(/C=C/C(=O)c2ccc(S(=O)(=O)NCCNc3nc(N(C)C)nc(N4CCOCC4)n3)cc2)cc(OC)c1OC [23d]
CAKI-1
  GI50: 10.6 µM
  CC50: 51 µM
T-47D
  GI50: 5.74 µM
  CC50: 71.5 µM
KM12
  GI50: 1.7 µM
  CC50: 6.52 µM
COLO 205
  GI50: 2.14 µM
  CC50: 16.6 µM
SF-295
  GI50: 3.04 µM
  CC50: 57.8 µM
HCT-15
  GI50: 1.82 µM
  CC50: 8.38 µM
SF-268
  GI50: 3.16 µM
  CC50: 77.2 µM
SR
  GI50: 1.88 µM
  CC50: > 100 µM
SNB-19
  GI50: 4.28 µM
  CC50: 41.7 µM
HT29
  GI50: 1.72 µM
  CC50: 5.93 µM
NCI-H322M
  GI50: 7.82 µM
  CC50: 48.5 µM
OVCAR-3
  GI50: 2.02 µM
  CC50: 8.84 µM
NCI-H522
  GI50: 1.66 µM
  CC50: 6.37 µM
[1]
  MIC: > 500 µg/mL
U251
  GI50: 1.54 µM
  CC50: 5.54 µM
HOP-62
  GI50: 2.66 µM
  CC50: 32.1 µM
UACC-62
  GI50: 2.14 µM
  CC50: 22.8 µM
786-0
  GI50: 1.89 µM
  CC50: 7.18 µM
OVCAR-4
  GI50: 2.21 µM
  CC50: 24.8 µM
SK-MEL-5
  GI50: 7.9 µM
  CC50: 46.6 µM
SK-MEL-2
  GI50: 10.7 µM
  CC50: 48.9 µM
UO-31
  GI50: 1.57 µM
  CC50: 6.32 µM
DU-145
  GI50: 3.31 µM
  CC50: 34.1 µM
MDA-MB-468
  GI50: 1.69 µM
  CC50: 6.66 µM

## COc1cc(/C=C/C(=O)c2cc(OC)c(OC)c(OC)c2)ccc1Oc1nc(NCCO)nc(N2CCOCC2)n1 [20d]
CAKI-1
  GI50: 2.43 µM
  CC50: 30.4 µM
T-47D
  GI50: 3.12 µM
  CC50: 39.9 µM
KM12
  GI50: 2.99 µM
  CC50: > 100 µM
COLO 205
  GI50: 2.1 µM
  CC50: 9.18 µM
SF-295
  GI50: 2.9 µM
  CC50: 35.2 µM
HCT-15
  GI50: 1.6 µM
  CC50: 10.2 µM
SF-268
  GI50: 3.02 µM
  CC50: 71.8 µM
NCI/ADR-RES
  GI50: 4.72 µM
  CC50: 95.9 µM
SR
  GI50: 0.784 µM
  CC50: > 100 µM
SNB-19
  GI50: 2.31 µM
  CC50: 29.9 µM
HT29
  GI50: 2.83 µM
  CC50: 32.9 µM
NCI-H322M
  GI50: 2.91 µM
  CC50: 29.3 µM
OVCAR-3
  GI50: 3.2 µM
  CC50: 34.4 µM
NCI-H522
  GI50: 1.56 µM
  CC50: 6.43 µM
U251
  GI50: 1.62 µM
  CC50: 6.02 µM
HOP-62
  GI50: 2.35 µM
  CC50: 22.4 µM
UACC-62
  GI50: 1.69 µM
  CC50: 6.03 µM
786-0
  GI50: 3.46 µM
  CC50: 43.6 µM
OVCAR-4
  GI50: 2.92 µM
  CC50: 33.4 µM
SK-MEL-5
  GI50: 1.77 µM
  CC50: 6.19 µM
SK-MEL-2
  GI50: 2.76 µM
  CC50: 33.1 µM
UO-31
  GI50: 1.66 µM
  CC50: 6.5 µM
DU-145
  GI50: 2.99 µM
  CC50: 35.3 µM
MDA-MB-468
  GI50: 1.71 µM
  CC50: 14.3 µM
